Data from patent publication US7432227B2, “6-alkyl or alkenyl-4-aminopicolinates and their use as herbicides” (Dow AgroSciences LLC, priority 2003, dated 2008).

Columns and labels:
[1] = tested on: Cocklebur (Xanthium strumarium); assay: Postemergence herbicidal activity, Cocklebur; type: in vivo; details: post-emergence, 336 h, visual score after 2 weeks, 0 = no injury, 100 = complete kill, read-out: Post-emergent % control XANST; for pest or weed control at 250 ppm: rate 250 ppm
Description: (§1) Seeds of the desired test plant species were planted in Grace-Sierra MetroMix® 306 planting mixture, which typically has a pH of 6.0 to 6.8 and an organic matter content of about 30 percent, in plastic pots with a surface area of 64 square centimeters. When required to ensure good germination and healthy plants, a fungicide treatment and/or other chemical or physical treatment was applied. The plants were grown for 7-21 days in a greenhouse with an approximate 15 hr photoperiod which was maintained at about 23-29° C. during the day and 22-28° C. during the night. Nutrients and water were added on a regular basis and supplemental lighting was provided with overhead metal halide 1000-Watt lamps as necessary. The plants were employed for testing when they reached the first or second true leaf stage. A weighed amount, determined by the highest rate to be tested, of each test compound was placed in a 20 mL glass vial and was dissolved in 4 mL of a 97:3 v/v (volume/volume) mixture of acetone and dimethyl sulfoxide (DMSO) to obtain concentrated stock solutions. […] The concentrated stock solutions obtained were diluted with an aqueous mixture containing acetone, water, isopropyl alcohol, DMSO, Atplus 411F crop oil concentrate, and Triton X-155 surfactant in a 48.5:39:10:1.5:1.0:0.02 v/v ratio to obtain spray solutions of known concentration. The solutions containing the highest concentration to be tested were prepared by diluting 2 mL aliquots of the stock solution with 13 mL of the mixture and lower concentrations were prepared by serial dilution of the stock solution. Approximately 1.5 mL aliquots of each solution of known concentration were sprayed evenly onto each of the test plant pots using a DeVilbiss atomizer driven by compressed air pressure of 2 to 4 psi (140 to 280 kilopascals) to obtain thorough coverage of each plant. Control plants were sprayed in the same manner with the aqueous mixture. In this test an application rate of 1 ppm results in the application of approximately 1 g/Ha. The treated plants and control plants were placed in a greenhouse as described above and watered by sub-irrigation to prevent wash-off of the test compounds. After 2 weeks the condition of the test plants as compared with that of the untreated plants was determined visually and scored on a scale of 0 to 100 percent where 0 corresponds to no injury and 100 corresponds to complete kill.

[2] = tested on: Lambsquarter (Chenopodium album); assay: Postemergence herbicidal activity, Lambsquarter; type: in vivo; details: post-emergence, 336 h, visual score after 2 weeks, 0 = no injury, 100 = complete kill, read-out: Post-emergent % control CHEAL; for pest or weed control at 250 ppm: rate 250 ppm
Description: as §1

[3] = tested on: Barnyardgrass (Echinochloa crus-galli); assay: Postemergence herbicidal activity, Barnyardgrass; type: in vivo; details: post-emergence, 336 h, visual score after 2 weeks, 0 = no injury, 100 = complete kill, read-out: Post-emergent % control ECHCG; for pest or weed control at 250 ppm: rate 250 ppm
Description: as §1

[4] = tested on: Giant Foxtail (Setaria faberi); assay: Postemergence herbicidal activity, Giant Foxtail; type: in vivo; details: post-emergence, 336 h, visual score after 2 weeks, 0 = no injury, 100 = complete kill, read-out: Post-emergent % control SETFA; for pest or weed control at 250 ppm: rate 250 ppm
Description: as §1

[5] = tested on: Lambsquarter (Chenopodium album); assay: Preemergence herbicidal activity, Lambsquarter; type: in vivo; details: pre-emergence, 504 h, visual score after 3 weeks, 100 = complete kill or no germination, read-out: Pre-emergent % control CHEAL; for pest or weed control at 280 ppm: rate 280 ppm; for pest or weed control at 560 ppm: rate 560 ppm; for pest or weed control at 140 ppm: rate 140 ppm
Source text: (§2) Seeds of the desired test plant species were planted in a soil matrix prepared by mixing a loam soil (43 percent silt, 19 percent clay, and 38 percent sand, with a pH of about 8.1 and an organic matter content of about 1.5 percent) and sand in a 70 to 30 ratio. The soil matrix was contained in plastic pots with a surface area of 113 square centimeters. When required to ensure good germination and healthy plants, a fungicide treatment and/or other chemical or physical treatment was applied. A weighed amount, determined by the highest rate to be tested, of each test compound was placed in a 20 mL glass vial and was dissolved in 4 mL of a 97:3 v/v (volume/volume) mixture of acetone and dimethyl sulfoxide to obtain concentrated stock solutions. […] The stock solutions obtained were diluted with a 99.9:0.1 mixture of water and Tween® […] surfactant to obtain application solutions of known concentration. The solutions containing the highest concentration to be tested were prepared by diluting 2 mL aliquots of the stock solution with 15 mL of the mixture and lower concentrations were prepared by serial dilution of the stock solution. A 2.5 mL aliquot of each solution of known concentration was sprayed evenly onto the soil surface (113 sq. cm) of each seeded pot using a Cornwall 5.0 mL glass syringe fitted with a TeeJet TN-3 hollow cone nozzle to obtain thorough coverage of the soil in each pot. Control pots were sprayed in the same manner with the aqueous mixture. The treated pots and control pots were placed in a greenhouse maintained with an approximate 15 hr photoperiod and temperatures of about 23-29° C. during the day and 22-28° C. during the night. Nutrients and water were added on a regular basis and supplemental lighting was provided with overhead metal halide 1000-Watt lamps as necessary. The water was added by top-irrigation. After 3 weeks the condition of the test plants that germinated and grew as compared with that of the untreated plants that germinated and grew was determined visually and scored on a scale of 0 to 100 percent where 0 corresponds to no injury and 100 corresponds to complete kill or no germination.

[6] = tested on: Ivyleaf Morningglory (Ipomoea hederacea); assay: Preemergence herbicidal activity, Ivyleaf Morningglory; type: in vivo; details: pre-emergence, 504 h, visual score after 3 weeks, 100 = complete kill or no germination, read-out: Pre-emergent % control IPOHE; for pest or weed control at 280 ppm: rate 280 ppm; for pest or weed control at 560 ppm: rate 560 ppm; for pest or weed control at 140 ppm: rate 140 ppm
Source text: as §2

[7] = tested on: Crabgrass(large) (Digitaria sanguinalis); assay: Preemergence herbicidal activity, Crabgrass(large); type: in vivo; details: pre-emergence, 504 h, visual score after 3 weeks, 100 = complete kill or no germination, read-out: Pre-emergent % control DIGSA; for pest or weed control at 280 ppm: rate 280 ppm; for pest or weed control at 560 ppm: rate 560 ppm; for pest or weed control at 140 ppm: rate 140 ppm
Source text: as §2

[8] = tested on: Giant Foxtail (Setaria faberi); assay: Preemergence herbicidal activity, Giant Foxtail; type: in vivo; details: pre-emergence, 504 h, visual score after 3 weeks, 100 = complete kill or no germination, read-out: Pre-emergent % control SETFA; for pest or weed control at 280 ppm: rate 280 ppm; for pest or weed control at 560 ppm: rate 560 ppm; for pest or weed control at 140 ppm: rate 140 ppm
Source text: as §2

Row | Compound | pest or weed control at 250 ppm [1] | pest or weed control at 250 ppm [2] | pest or weed control at 250 ppm [3] | pest or weed control at 250 ppm [4] | melting point | pest or weed control at 560 ppm [5] | pest or weed control at 560 ppm [6] | pest or weed control at 560 ppm [7] | pest or weed control at 560 ppm [8] | pest or weed control at 140 ppm [5] | pest or weed control at 140 ppm [6] | pest or weed control at 140 ppm [7] | pest or weed control at 140 ppm [8] | further results
1 | C=Cc1nc(C(=O)OC)c(Cl)c(N)c1F [Compound 1, Methyl 4-amino-3-chloro-5-fluoro-6-vinylpyridine-2-carboxylate] | 100% | 100% | 60% | 50% | 68 to 71 °C | – | – | – | – | – | – | – | – | pest or weed control at 280 ppm [5]: 100%; pest or weed control at 280 ppm [6]: 100%; pest or weed control at 280 ppm [7]: 95%; pest or weed control at 280 ppm [8]: 90%
2 | C=Cc1cc(N)c(Cl)c(C(=O)OC)n1 [Compound 2, Methyl 4-amino-3-chloro-6-vinylpyridine-2-carboxylate] | 80% | 85% | 0% | 10% | – | 100% | 60% | 0% | 0% | – | – | – | – | –
3 | CCc1nc(C(=O)OC)c(Cl)c(N)c1F [Compound 3, Methyl 4-amino-3-chloro-6-ethyl-5-fluoropyridine-2-carboxylate] | 100% | 100% | 85% | 80% | 109 to 110 °C | – | – | – | – | 100% | 100% | 100% | 100% | –
4 | CCc1nc(C(=O)O)c(Cl)c(N)c1F [Compound 5, 4-Amino-3-chloro-6-ethyl-5-fluoropyridine-2-carboxylic acid] | 100% | 100% | 85% | 70% | 144 to 145 °C | – | – | – | – | 100% | 100% | 90% | 90% | –
5 | Cc1nc(C(=O)O)c(Cl)c(N)c1F [Compound 7, 4-Amino-3-chloro-6-methyl-5-fluoropyridine-2-carboxylic acid] | – | – | – | – | – | – | – | – | – | – | – | – | – | pest or weed control at 288 ppm ([1]; rate 288 ppm): 100%; pest or weed control at 288 ppm ([2]; rate 288 ppm): 98%; pest or weed control at 288 ppm ([3]; rate 288 ppm): 80%; pest or weed control at 288 ppm ([4]; rate 288 ppm): 85%; pest or weed control at 295 ppm ([5]; rate 295 ppm): 98%; pest or weed control at 295 ppm ([6]; rate 295 ppm): 98%; pest or weed control at 295 ppm ([7]; rate 295 ppm): 85%; pest or weed control at 295 ppm ([8]; rate 295 ppm): 85%
6 | Cc1cc(N)c(Cl)c(C(=O)O)n1 [Compound 8, 4-Amino-3-chloro-6-methylpyridine-2-carboxylic acid] | 70% | 40% | 0% | 0% | – | – | – | – | – | – | – | – | – | pest or weed control at 280 ppm [5]: 100%; pest or weed control at 280 ppm [6]: 85%; pest or weed control at 280 ppm [7]: 20%; pest or weed control at 280 ppm [8]: 10%
7 | CSCc1cc(N)c(Cl)c(C(=O)O)n1 [Compound 10, 4-Amino-3-chloro-6-[(methylthio)methyl]pyridine-2-carboxylic acid] | 85% | 70% | 0% | 20% | – | 0% | 0% | 0% | 0% | – | – | – | – | –
8 | C=CCc1cc(N)c(Cl)c(C(=O)O)n1 [Compound 11, 6-Allyl-4-amino-3-chloropyridine-2-carboxylic acid] | 85% | 70% | 0% | 0% | – | 40% | 80% | 0% | 0% | – | – | – | – | –
9 | COC(=O)c1nc(C)c(F)c(N)c1Cl [Compound 12, Methyl 4-amino-3-chloro-5-fluoro-6-methylpyridine-2-carboxylate] | 100% | 100% | 80% | 95% | 113 to 114 °C | – | – | – | – | 100% | 100% | 100% | 98% | –
